Test system: 292921-168-R-J2-PDC complex spheroid growth
Experiment: Anticancer human tumor 292921-168-R-J2-PDC patient-derived pancreatic carcinoma cell line growth inhibition [AhR]
Details: for IC50: curve of first compound; for viability, T/C: stronger effect = lower value; active = viability on the fitted dose curve at most 10% of control; inactive = the rest
How it was run: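 Agents were dosed in half-log steps down from roughly clinical Cmax, or from 10 microM where Cmax was unknown, alone and with AhR antagonists. Read-out: percent test/control growth of tumor spheroids containing HUVEC and MSC stromal cells.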

[1] = second compound 0.1 µM, first compound 0.0316 µM
[2] = second compound 0.1 µM, first compound 0.1 µM
[3] = second compound 0.1 µM, first compound 0.316 µM
[4] = second compound 0.1 µM, first compound 1 µM
[5] = second compound 0.1 µM, first compound 3.16 µM
[6] = second compound 0.1 µM, first compound 10 µM
[7] = second compound 0.316 µM, first compound 0.0316 µM
[8] = second compound 0.316 µM, first compound 0.1 µM
[9] = second compound 0.316 µM, first compound 0.316 µM
[10] = second compound 0.316 µM, first compound 1 µM
[11] = second compound 0.316 µM, first compound 3.16 µM
[12] = second compound 0.316 µM, first compound 10 µM
[13] = second compound 1 µM, first compound 0.0316 µM
[14] = second compound 1 µM, first compound 0.1 µM
[15] = second compound 1 µM, first compound 0.316 µM
[16] = second compound 1 µM, first compound 1 µM
[17] = second compound 1 µM, first compound 3.16 µM
[18] = second compound 1 µM, first compound 10 µM
[19] = second compound 3.16 µM, first compound 0.0316 µM
[20] = second compound 3.16 µM, first compound 0.1 µM
[21] = second compound 3.16 µM, first compound 0.316 µM
[22] = second compound 3.16 µM, first compound 1 µM
[23] = second compound 3.16 µM, first compound 3.16 µM
[24] = second compound 3.16 µM, first compound 10 µM
[25] = second compound 10 µM, first compound 0.0316 µM
[26] = second compound 10 µM, first compound 0.1 µM
[27] = second compound 10 µM, first compound 0.316 µM
[28] = second compound 10 µM, first compound 1 µM
[29] = second compound 10 µM, first compound 3.16 µM
[30] = second compound 10 µM, first compound 10 µM
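Note: spheroids exposed to compounds for seven days after three days of growth.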

COc1cccc2c1C(=O)c1c(O)c3c(c(O)c1C2=O)CC(O)(C(=O)CO)CC3OC1CC(N)C(O)C(C)O1 (stereo not given) + CC(CO)NC(=O)c1cc(-c2ccc(Cl)cc2)nn(-c2cnn(C)c2)c1=O
inactive: viability, T/C [1] 32.5% | viability, T/C [2] 22.5% | viability, T/C [7] 31.8% | viability, T/C [8] 21.6% | viability, T/C [13] 31.9% | viability, T/C [14] 26.1% | viability, T/C [15] 8.6% | viability, T/C [19] 29.6% | viability, T/C [20] 22.4% | viability, T/C [25] 25.2% | viability, T/C [26] 19.9%
< 31.6 nM: IC50 (second compound 0.1 µM) | IC50 (second compound 0.316 µM) | IC50 (second compound 1 µM) | IC50 (second compound 3.16 µM) | IC50 (second compound 10 µM)
active: viability, T/C [3] 7.11% | viability, T/C [4] 1.19% | viability, T/C [5] 3.72% | viability, T/C [6] 4.17% | viability, T/C [9] 8.73% | viability, T/C [10] 1.26% | viability, T/C [11] 2.17% | viability, T/C [12] 4.63% | viability, T/C [16] 1.22% | viability, T/C [17] 2% | viability, T/C [18] 4.64% | viability, T/C [21] 5.98% | viability, T/C [22] 1.4% | viability, T/C [23] 2.71% | viability, T/C [24] 3.71% | viability, T/C [27] 4.23% | viability, T/C [28] 1.07% | viability, T/C [29] 2.43% | viability, T/C [30] 5.08%

O=C(c1cc(Cc2n[nH]c(=O)c3ccccc23)ccc1F)N1CCN(C(=O)C2CC2)CC1 + Cc1ccccc1N=Nc1ccc(NC(=O)c2ccnn2C)c(C)c1
4550 nM: IC50 (second compound 10 µM)
> 10000 nM: IC50 (second compound 0.1 µM) | IC50 (second compound 0.316 µM) | IC50 (second compound 1 µM) | IC50 (second compound 3.16 µM)
inactive: viability, T/C [1] 80% | viability, T/C [2] 84.9% | viability, T/C [3] 92.9% | viability, T/C [4] 95.8% | viability, T/C [5] 89.6% | viability, T/C [6] 75.5% | viability, T/C [7] 79.4% | viability, T/C [8] 90% | viability, T/C [9] 86.8% | viability, T/C [10] 85.8% | viability, T/C [11] 84.5% | viability, T/C [12] 65.7% | viability, T/C [13] 77.8% | viability, T/C [14] 67.8% | viability, T/C [15] 79.2% | viability, T/C [16] 73.5% | viability, T/C [17] 82.8% | viability, T/C [18] 67.4% | viability, T/C [19] 69.2% | viability, T/C [20] 64.4% | viability, T/C [21] 72.5% | viability, T/C [22] 67.4% | viability, T/C [23] 63.6% | viability, T/C [24] 58.9% | viability, T/C [25] 50.6% | viability, T/C [26] 59.5% | viability, T/C [27] 54.6% | viability, T/C [28] 62.6% | viability, T/C [29] 49.7% | viability, T/C [30] 43.8%

CC1COCCN1c1cc(-c2ccnn2C)c2ccnc(-c3ccn[nH]3)c2n1 (stereo not given) + Cc1ccccc1N=Nc1ccc(NC(=O)c2ccnn2C)c(C)c1
inactive: viability, T/C (second compound 0.1 µM, first compound 0.00316 µM) 95.7% | viability, T/C (second compound 0.1 µM, first compound 0.01 µM) 86.6% | viability, T/C [1] 54.5% | viability, T/C [2] 26.6% | viability, T/C [3] 18.5% | viability, T/C [4] 15.5% | viability, T/C (second compound 0.316 µM, first compound 0.00316 µM) 90.8% | viability, T/C (second compound 0.316 µM, first compound 0.01 µM) 81.6% | viability, T/C [7] 58.9% | viability, T/C [8] 28.8% | viability, T/C [9] 18% | viability, T/C [10] 16.2% | viability, T/C (second compound 1 µM, first compound 0.00316 µM) 83.4% | viability, T/C (second compound 1 µM, first compound 0.01 µM) 74.3% | viability, T/C [13] 51.8% | viability, T/C [14] 25% | viability, T/C [15] 19.3% | viability, T/C [16] 15.7% | viability, T/C (second compound 3.16 µM, first compound 0.00316 µM) 79.2% | viability, T/C (second compound 3.16 µM, first compound 0.01 µM) 68.1% | viability, T/C [19] 37.3% | viability, T/C [20] 23.2% | viability, T/C [21] 16.7% | viability, T/C [22] 13.8% | viability, T/C (second compound 10 µM, first compound 0.00316 µM) 57.8% | viability, T/C (second compound 10 µM, first compound 0.01 µM) 57% | viability, T/C [25] 29.8% | viability, T/C [26] 25.1% | viability, T/C [27] 19.2% | viability, T/C [28] 15.8%
43.9 nM: IC50 (second compound 0.316 µM)
20 nM: IC50 (second compound 3.16 µM)
33.1 nM: IC50 (second compound 1 µM)
38.5 nM: IC50 (second compound 0.1 µM)
13.2 nM: IC50 (second compound 10 µM)

CCc1c2c(nc3ccc(O)cc13)-c1cc3c(c(=O)n1C2)COC(=O)[C@]3(O)CC + Cc1cncc(-c2nc(NCCc3c[nH]c4ccccc34)c3ncn(C(C)C)c3n2)c1
1.92 nM: IC50 (second compound 1 µM)
< 0.949 nM: IC50 (second compound 3.16 µM) | IC50 (second compound 10 µM)
2.91 nM: IC50 (second compound 0.1 µM)
2.89 nM: IC50 (second compound 0.316 µM)
active: viability, T/C (second compound 0.1 µM, first compound 0.03 µM) 11.1% | viability, T/C (second compound 0.1 µM, first compound 0.0949 µM) 5.94% | viability, T/C (second compound 0.1 µM, first compound 0.3 µM) 3.28% | viability, T/C (second compound 0.316 µM, first compound 0.03 µM) 11.7% | viability, T/C (second compound 0.316 µM, first compound 0.0949 µM) 5.74% | viability, T/C (second compound 0.316 µM, first compound 0.3 µM) 3.22% | viability, T/C (second compound 1 µM, first compound 0.0949 µM) 6.94% | viability, T/C (second compound 1 µM, first compound 0.3 µM) 4.02% | viability, T/C (second compound 3.16 µM, first compound 0.0949 µM) 6.69% | viability, T/C (second compound 3.16 µM, first compound 0.3 µM) 3.97% | viability, T/C (second compound 10 µM, first compound 0.0949 µM) 9.49% | viability, T/C (second compound 10 µM, first compound 0.3 µM) 6.16%
inactive: viability, T/C (second compound 0.1 µM, first compound 0.000949 µM) 62.5% | viability, T/C (second compound 0.1 µM, first compound 0.003 µM) 50.5% | viability, T/C (second compound 0.1 µM, first compound 0.00949 µM) 22.7% | viability, T/C (second compound 0.316 µM, first compound 0.000949 µM) 64.3% | viability, T/C (second compound 0.316 µM, first compound 0.003 µM) 50.4% | viability, T/C (second compound 0.316 µM, first compound 0.00949 µM) 23.2% | viability, T/C (second compound 1 µM, first compound 0.000949 µM) 57.6% | viability, T/C (second compound 1 µM, first compound 0.003 µM) 45.8% | viability, T/C (second compound 1 µM, first compound 0.00949 µM) 22.5% | viability, T/C (second compound 1 µM, first compound 0.03 µM) 11.6% | viability, T/C (second compound 3.16 µM, first compound 0.000949 µM) 44.6% | viability, T/C (second compound 3.16 µM, first compound 0.003 µM) 35.2% | viability, T/C (second compound 3.16 µM, first compound 0.00949 µM) 19.6% | viability, T/C (second compound 3.16 µM, first compound 0.03 µM) 11.1% | viability, T/C (second compound 10 µM, first compound 0.000949 µM) 36.7% | viability, T/C (second compound 10 µM, first compound 0.003 µM) 28.9% | viability, T/C (second compound 10 µM, first compound 0.00949 µM) 21.7% | viability, T/C (second compound 10 µM, first compound 0.03 µM) 14.2%
